Results: the NIST ThermoML archive (doi:10.1021/je400755x)
Numbers after ± are expanded uncertainties.

Settings: Liquid, Closed cell (Static) method

| vapor or sublimation pressure (313.05 K) [kPa] | vapor or sublimation pressure (322.92 K) [kPa] | vapor or sublimation pressure (333 K) [kPa] | vapor or sublimation pressure (342.76 K) [kPa] | vapor or sublimation pressure (352.84 K) [kPa] | vapor or sublimation pressure (362.75 K) [kPa] | vapor or sublimation pressure (369.36 K) [kPa] | SMILES | vapor or sublimation pressure (298.88 K) [kPa] | vapor or sublimation pressure (308.19 K) [kPa] | vapor or sublimation pressure (313.35 K) [kPa] | vapor or sublimation pressure (323.13 K) [kPa] | vapor or sublimation pressure (323.19 K) [kPa] | vapor or sublimation pressure (323.75 K) [kPa] | vapor or sublimation pressure (333.47 K) [kPa] | vapor or sublimation pressure (343.12 K) [kPa] | vapor or sublimation pressure (343.83 K) [kPa] | vapor or sublimation pressure (352.3 K) [kPa] | vapor or sublimation pressure (353.05 K) [kPa] | vapor or sublimation pressure (363.03 K) [kPa] | vapor or sublimation pressure (369.15 K) [kPa] |
| --- | --- | --- | --- | --- | --- | --- | --- | --- | --- | --- | --- | --- | --- | --- | --- | --- | --- | --- | --- | --- |
| 56 ± 20 | 78 ± 20 | 109 ± 20 | 147 ± 20 | 197 ± 20 | 256 ± 20 | 303 ± 20 | C=CCCC=C [1,5-hexadiene] |  |  |  |  |  |  |  |  |  |  |  |  |  |
|  |  |  |  |  |  |  | C=CCCl [3-chloro-1-propene] | 55 ± 20 | 75 ± 20 | 90 ± 20 | 125 ± 20 | 126 ± 20 | 126 ± 20 | 173 ± 20 | 228 ± 20 | 233 ± 20 | 294 ± 20 | 301 ± 20 | 389 ± 20 | 454 ± 20 |
